Consider 37 compounds from US11274073B2, “TRPV1 modulator compounds” (ANTALGENICS, S.L., priority 2017, dated 2022).

For one test, the target named is T1, rat TRPV1 channel (Rattus norvegicus, UniProt O35433).
T1 construct: expressed in transfected cells; host or cells: SH-SY5Y (human neuroblastoma) stably expressing rat TRPV1, under puromycin selection
T1 sequence (O35433 whole entry): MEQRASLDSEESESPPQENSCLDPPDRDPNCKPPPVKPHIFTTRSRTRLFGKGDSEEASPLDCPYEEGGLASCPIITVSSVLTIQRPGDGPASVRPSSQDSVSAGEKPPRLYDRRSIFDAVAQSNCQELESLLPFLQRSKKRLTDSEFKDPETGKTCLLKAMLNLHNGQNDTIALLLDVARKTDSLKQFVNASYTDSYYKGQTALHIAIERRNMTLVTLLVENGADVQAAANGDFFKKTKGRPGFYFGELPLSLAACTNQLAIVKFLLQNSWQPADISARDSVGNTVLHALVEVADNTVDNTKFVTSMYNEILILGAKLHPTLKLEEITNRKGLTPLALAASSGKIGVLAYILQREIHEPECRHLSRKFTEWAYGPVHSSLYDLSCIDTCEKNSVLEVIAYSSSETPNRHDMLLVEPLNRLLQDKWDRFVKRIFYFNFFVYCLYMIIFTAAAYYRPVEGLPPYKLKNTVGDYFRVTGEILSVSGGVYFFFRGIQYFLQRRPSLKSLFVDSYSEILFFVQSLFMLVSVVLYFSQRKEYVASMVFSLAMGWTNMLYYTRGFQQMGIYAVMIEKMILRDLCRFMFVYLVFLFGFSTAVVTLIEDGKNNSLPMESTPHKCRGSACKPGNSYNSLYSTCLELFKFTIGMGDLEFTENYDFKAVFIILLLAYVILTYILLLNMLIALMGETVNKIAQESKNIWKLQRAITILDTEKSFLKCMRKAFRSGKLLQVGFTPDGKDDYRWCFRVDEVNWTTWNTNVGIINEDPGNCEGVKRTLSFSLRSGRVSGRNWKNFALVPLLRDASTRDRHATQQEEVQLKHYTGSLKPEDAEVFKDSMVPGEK
Put plainly: Calcium microfluorometry assay on TRPV1-SH-SY5Y cells, single concentration 10 μM. The class given is cell-based. Particulars: compound 10 μM before stimulation with 10 μM capsaicin, RR (10 μM Ruthenium Red) = 100%. The protocol: The activity of the compounds was determined on TRPV1 expressing cells (TRPV1-SH-SY5Y) by Calcium microfluorometry assay.
SH-SY5Y cells stably expressing rat TRPV1 channel (SH-SY5Y-TRPV1) were grown in Earle's minimum essential medium (MEM) containing 10% (v/v) of FCS, 1% nonessential amino acids, 2 mM L-glutamine, 100 μg/ml streptomycin, 100 U/ml penicillin, and 0.4 μg/ml puromycin in a humidity-controlled incubator with 5% CO2 and at 37° C. For fluorescence assays, cells expressing TRPV1 channel (TRPV1-SH-SY5Y) were seeded in 96-well plates (Corning Incorporated, Corning, N.Y.) at a cell density of 40,000 cells 2 days before treatment. The day of treatment the medium was replaced with 100 μL of the dye loading solution Fluo-4 NW supplemented with probenecid 2.5 mM. After incubation at 37° C. in a humidified atmosphere of 5% CO2 for 60 minutes, plates were transferred to a fluorescence plate reader (Polastar Omega BMG Labtech). The baseline fluorescence of Fluo-4 dye ([…]) was recorded for 4 cycles. […] The antagonist (10 μM Ruthenium Red for TRPV1) was added for the blockade. The changes in fluorescence intensity were recorded during 10 cycles more.
For the compound `COc1cc(CNC(=O)COC(=O)CC/C(C)=C/CC/C(C)=C/CC/C=C(\C)CCC=C(C)CCC=C(C)C)c(I)cc1O` (stereo in doubt) [Ex-53, (4E,8E,12E,16E)-2-((4-hydroxy-2-iodo-5-methoxy-benzyl)amino)-2-oxoethyl 4,8,13,17,21-pentamethyl-docosa-4,8,12,16,20-pentaenoate], the “TRPV1 blockage at 10 μM (% ± SD)” value was 31.05 ± 1.46%.

Take `CCCC(=O)OCC(=O)NCc1cc(OC)c(O)cc1I` [Ex-17, 2-((4-hydroxy-2-iodo-5-methoxybenzyl)amino)-2-oxoethyl butyrate]: the “TRPV1 blockage at 10 μM (% ± SD)” value is listed as 14.44 ± 0.27%.

Regarding `CCCCC(=O)OCC(=O)NCc1cc(OC)c(O)cc1I` [Ex-19, 2-((4-hydroxy-2-iodo-5-methoxybenzyl)amino)-2-oxoethyl pentanoate], the “TRPV1 blockage at 10 μM (% ± SD)” value is reported as 21.85 ± 2.85%.

Regarding `COc1cc(CNC(=O)COC(=O)CC(C)C)c(I)cc1O` [Ex-21, 2-((4-hydroxy-2-iodo-5-methoxybenzyl)amino)-2-oxoethyl 3-methyl-butanoate], the “TRPV1 blockage at 10 μM (% ± SD)” value turned out to be 8.35 ± 4.10%.

On to `CCCCCC(=O)OCC(=O)NCc1cc(OC)c(O)cc1I` [Ex-23, 2-((4-hydroxy-2-iodo-5-methoxybenzyl)amino)-2-oxoethyl hexanoate], for which the “TRPV1 blockage at 10 μM (% ± SD)” value was 23.14 ± 7.81%.

Take `C/C=C/C=C/C(=O)OCC(=O)NCc1cc(OC)c(O)cc1I` [Ex-25, (2E,4E)-2-((4-hydroxy-2-iodo-5-methoxybenzyl)amino)-2-oxoethyl hexa-2,4-dienoate]: the “TRPV1 blockage at 10 μM (% ± SD)” value was found to be 13.98 ± 5.98%.

On to `CCCCCCC(=O)OCC(=O)NCc1cc(OC)c(O)cc1I` [Ex-27, 2-((4-hydroxy-2-iodo-5-methoxybenzyl)amino)-2-oxoethyl heptanoate], for which the “TRPV1 blockage at 10 μM (% ± SD)” value is 21.80 ± 5.41%.

On to `CCCCCCCC(=O)OCC(=O)NCc1cc(OC)c(O)cc1I` [Ex-29, 2-((4-hydroxy-2-iodo-5-methoxybenzyl)amino)-2-oxoethyl octanoate], for which the “TRPV1 blockage at 10 μM (% ± SD)” value is reported as 31.23 ± 8.34%.

For the compound `CCCCCCCCC(=O)OCC(=O)NCc1cc(OC)c(O)cc1I` [Ex-31, 2-((4-hydroxy-2-iodo-5-methoxybenzyl)amino)-2-oxoethyl nonanoate], the “TRPV1 blockage at 10 μM (% ± SD)” value worked out at 25.23 ± 7.63%.

For `CCCCCCCCCC(=O)OCC(=O)NCc1cc(OC)c(O)cc1I` [Ex-35, 2-((4-hydroxy-2-iodo-5-methoxybenzyl)amino)-2-oxoethyl decanoate], the “TRPV1 blockage at 10 μM (% ± SD)” value stood at 20.48 ± 9.67%.

Turning to `CCCCCCCCCCCCCCC(=O)OCC(=O)NCc1cc(OC)c(O)cc1I` [Ex-39, 2-((4-hydroxy-2-iodo-5-methoxybenzyl)amino)-2-oxoethyl pentadecanoate], the “TRPV1 blockage at 10 μM (% ± SD)” value is 21.82 ± 4.75%.

As for `CCCCCCCCCCCCCCCCCC(=O)OCC(=O)NCc1cc(OC)c(O)cc1I` [Ex-41, 2-((4-hydroxy-2-iodo-5-methoxybenzyl)amino)-2-oxoethyl stearate], the “TRPV1 blockage at 10 μM (% ± SD)” value is on record as 38.89 ± 3.53%.

As to `CCCCCCCC/C=C\CCCCCCCC(=O)OCC(=O)NCc1cc(OC)c(O)cc1I` [Ex-43, 2-((4-hydroxy-2-iodo-5-methoxybenzyl)amino)-2-oxoethyl oleate], the “TRPV1 blockage at 10 μM (% ± SD)” value amounted to 45.68 ± 14.26%.

`CCCCCC[C@@H](O)C/C=C\CCCCCCCC(=O)OCC(=O)NCc1cc(OC)c(O)cc1I` [Ex-45, (R,Z)-2-((4-hydroxy-2-iodo-5-methoxybenzyl)amino)-2-oxoethyl 12-hydroxyoctadec-9-enoate]: the “TRPV1 blockage at 10 μM (% ± SD)” value stood at 21.74 ± 7.05%.

`CCCCCC[C@H](C/C=C\CCCCCCCC(=O)OCC(=O)NCc1cc(OC)c(O)cc1I)OC(=O)Cc1ccccc1` [Ex-47, (Z)-2-((4-hydroxy-2-iodo-5-methoxybenzyl)amino)-2-oxoethyl 12-(2-phenyl-acetoxy)octadec-9-enoate]: the “TRPV1 blockage at 10 μM (% ± SD)” value was found to be 63.29 ± 12.80%.

With `CCCCCCCC/C=C\CCCCCCCCCCCC(=O)OCC(=O)NCc1cc(OC)c(O)cc1I` [Ex-49, (Z)-2-((4-hydroxy-2-iodo-5-methoxybenzyl)amino)-2-oxoethyl docos-13-enoate], the “TRPV1 blockage at 10 μM (% ± SD)” value came out at 34.94 ± 5.51%.

For the compound `CCCCC/C=C\C/C=C\C/C=C\C/C=C\CCCC(=O)OCC(=O)NCc1cc(OC)c(O)cc1I` [Ex-51, (5Z,8Z,11Z,14Z)-2-((4-hydroxy-2-iodo-5-methoxy-benzyl)amino)-2-oxoethyl icosa-5,8,11,14-tetraenoate], the “TRPV1 blockage at 10 μM (% ± SD)” value amounted to 30.85 ± 5.87%.

Take `CC(C)=CCC/C(C)=C/C(=O)OCC(=O)NCCc1cc(O)c(O)cc1I` [Ex-59, (E)-2-((4,5-dihydroxy-2-iodophenethyl)amino)-2-oxoethyl 3,7-dimethylocta-2,6-dienoate]: the “TRPV1 blockage at 10 μM (% ± SD)” value stood at 46.3 ± 12.70%.

The same test, now with this note: compound 10 μM, Fluo-4 NW fluorescence, Cap (10 μM capsaicin) = 100%.
Regarding `COc1cc(CNC(=O)CCCC/C=C/C(C)C)ccc1O` [Capsaicin, reference compound], the “TRPV1 activation at 10 μM (% ± SD)” value came to 100%.

`CCCC(=O)OCC(=O)NCc1ccc(O)c(OC)c1` [Ex-16, 2-((4-hydroxy-3-methoxybenzyl)amino)-2-oxoethyl butyrate]: the “TRPV1 activation at 10 μM (% ± SD)” value is listed as 25.59 ± 4.29%.

For the compound `CCCCC(=O)OCC(=O)NCc1ccc(O)c(OC)c1` [Ex-18, 2-((4-hydroxy-3-methoxy-benzyl)amino)-2-oxoethyl pentanoate], the “TRPV1 activation at 10 μM (% ± SD)” value was determined as 29.43 ± 14.90%.

As for `COc1cc(CNC(=O)COC(=O)CC(C)C)ccc1O` [Ex-20, 2-((4-hydroxy-3-methoxy-benzyl)amino)-2-oxoethyl 3-methylbutanoate], the “TRPV1 activation at 10 μM (% ± SD)” value was 35.82 ± 3.48%.

On to `CCCCCC(=O)OCC(=O)NCc1ccc(O)c(OC)c1` [Ex-22, 2-((4-hydroxy-3-methoxy-benzyl)amino)-2-oxoethyl hexanoate], for which the “TRPV1 activation at 10 μM (% ± SD)” value came to 73.32 ± 12.83%.

`C/C=C/C=C/C(=O)OCC(=O)NCc1ccc(O)c(OC)c1` [Ex-24, (2E,4E)-2-((4-hydroxy-3-methoxybenzyl)amino)-2-oxoethyl hexa-2,4-dienoate]: the “TRPV1 activation at 10 μM (% ± SD)” value was determined as 75.59 ± 6.25%.

Consider `CCCCCCC(=O)OCC(=O)NCc1ccc(O)c(OC)c1` [Ex-26, 2-((4-hydroxy-3-methoxy-benzyl)amino)-2-oxoethyl heptanoate], for which the “TRPV1 activation at 10 μM (% ± SD)” value is recorded as 74.41 ± 17.66%.

Consider `CCCCCCCC(=O)OCC(=O)NCc1ccc(O)c(OC)c1` [Ex-28, 2-((4-hydroxy-3-methoxy-benzyl)amino)-2-oxoethyl octanoate], for which the “TRPV1 activation at 10 μM (% ± SD)” value worked out at 54.08 ± 4.09%.

Take `CCCCCCCCC(=O)OCC(=O)NCc1ccc(O)c(OC)c1` [Ex-30, 2-((4-hydroxy-3-methoxybenzyl)amino)-2-oxoethyl nonanoate]: the “TRPV1 activation at 10 μM (% ± SD)” value is recorded as 68.45 ± 7.20%.

Consider `CCCCCCCCCC(=O)OCC(=O)NCc1ccc(O)c(OC)c1` [Ex-34, 2-((4-hydroxy-3-methoxy-benzyl)amino)-2-oxoethyl decanoate], for which the “TRPV1 activation at 10 μM (% ± SD)” value is recorded as 47.91 ± 10.32%.

As for `CCCCCCCCCCCCCCC(=O)OCC(=O)NCc1ccc(O)c(OC)c1` [Ex-38, 2-((4-hydroxy-3-methoxy-benzyl)amino)-2-oxoethyl pentadecanoate], the “TRPV1 activation at 10 μM (% ± SD)” value was 75.96 ± 9.86%.

As to `CCCCCCCCCCCCCCCCCC(=O)OCC(=O)NCc1ccc(O)c(OC)c1` [Ex-40, 2-((4-hydroxy-3-methoxy-benzyl)amino)-2-oxoethyl stearate], the “TRPV1 activation at 10 μM (% ± SD)” value stood at 54.74 ± 17.75%.

In the case of `CCCCCCCC/C=C\CCCCCCCC(=O)OCC(=O)NCc1ccc(O)c(OC)c1` [Ex-42, 2-((4-hydroxy-3-methoxy-benzyl)amino)-2-oxoethyl oleate], the “TRPV1 activation at 10 μM (% ± SD)” value amounted to 77.19 ± 11.95%.

As to `CCCCCC[C@@H](O)C/C=C\CCCCCCCC(=O)OCC(=O)NCc1ccc(O)c(OC)c1` [Ex-44, (R,Z)-2-((4-hydroxy-3-methoxybenzyl)amino)-2-oxoethyl 12-hydroxyoctadec-9-enoate], the “TRPV1 activation at 10 μM (% ± SD)” value was determined as 60.84 ± 12.80%.

As to `CCCCCC[C@H](C/C=C\CCCCCCCC(=O)OCC(=O)NCc1ccc(O)c(OC)c1)OC(=O)Cc1ccccc1` [Ex-46, (Z)-2-((4-hydroxy-3-methoxy-benzyl)amino)-2-oxoethyl 12-(2-phenylacetoxy)octadec-9-enoate], the “TRPV1 activation at 10 μM (% ± SD)” value was 33.16 ± 9.97%.

As for `CCCCCCCC/C=C\CCCCCCCCCCCC(=O)OCC(=O)NCc1ccc(O)c(OC)c1` [Ex-48, (Z)-2-((4-hydroxy-3-methoxybenzyl)amino)-2-oxoethyl docos-13-enoate], the “TRPV1 activation at 10 μM (% ± SD)” value is given as 47.40 ± 14.56%.

As to `CCCCC/C=C\C/C=C\C/C=C\C/C=C\CCCC(=O)OCC(=O)NCc1ccc(O)c(OC)c1` [Ex-50, (5Z,8Z,11Z,14Z)-2-((4-hydroxy-3-methoxy-benzyl)amino)-2-oxoethyl icosa-5,8,11,14-tetraenoate], the “TRPV1 activation at 10 μM (% ± SD)” value stood at 73.80 ± 7.42%.

For the compound `CC(C)=CCC/C(C)=C/C(=O)OCC(=O)NCCc1ccc(O)c(O)c1` [Ex-58, (E)-2-((3,4-dihydroxyphenethyl)amino)-2-oxoethyl 3,7-dimethylocta-2,6-dienoate], the “TRPV1 activation at 10 μM (% ± SD)” value was 88.12 ± 9.76%.

In the case of `CCCCCCCC/C=C\CCCCCCCC(=O)OCC(=O)NCCc1ccc(O)c(O)c1` [Ex-62, 2-((3,4-dihydroxyphenethyl)-amino)-2-oxoethyl oleate], the “TRPV1 activation at 10 μM (% ± SD)” value is recorded as 78.48 ± 4.61%.
